{"source": "patent US20050260158A1", "about": "“Human stem cell materials and methods” (priority 2003, published 2005)", "type_in_all_cases": "cell-based, human", "key": {"insulin gene": {"tested_on": "insulin gene", "test": "Nested RT-PCR for insulin in MDSC cultures", "settings": "treated MDSC cultures; markedly increased in high glucose", "procedure": "Nested RT-PCR. Nested RT-PCR was performed using the QIAGEN® OneStep RT-PCR kit (Qiagen, Valencia, Calif.), with the following: insulin forward-[…] (SEQ ID NO: 1) (PCR product size 324 bp), insulin forward nested-[…] (SEQ ID NO: 2) (PCR product size 266 bp), insulin reverse-[…] (SEQ ID NO: 3), glyceraldehyde phosphate dehydrogenase (GAPDH) forward-[…] (SEQ ID NO: 4) (PCR product size 541 bp), GAPDH forward nested-[…] (SEQ ID NO: 5) (PCR poduct size 282 bp), GAPDH reverse-[…] (SEQ ID NO: 6). Both PCR rounds were done using 40 cycles consisting of 30 seconds at 94° C., 1 minute at 58° C., and 1 minute at 72° C. First round PCR products were diluted 1:100 prior to the nested PCR. Final PCR products were electrophoresed through 1.7% agarose with ethidiumbromide and visualized by UV."}, "MDSC cultures [1]": {"tested_on": "MDSC cultures", "test": "Transmission electron microscopy of treated MDSC cultures", "settings": "treated MDSC cultures in high glucose", "procedure": "Transmission electron microscopy. Untreated or treated MDSC cultures were incubated in high glucose in 8-well Permanox® Slides (Nunc, Naperville, Ill.). Freshly human isolated islets were fixed for 2 h with 2% glutaraldehyde in cacodylate buffer at room temperature and the further sample preparation was done as described in Zhu, X., et al., Proc. Natl. Acad. Sci. (USA), 99:10299-10304 (2002). Fifty randomly selected cells were photographed using the Philips CM-120 transmission electron microscope."}, "MDSC cultures [2]": {"tested_on": "MDSC cultures", "test": "Insulin release from MDSC cultures (insulin ELISA)", "settings": "MDSC cultures treated 4-5 days", "procedure": "Insulin release. MDSC cultures incubated in 24-well tissue culture plates (Costar, Cambridge, Mass.) at 70-80% confluence were treated for 4-5 days with LPS or CD40Ab. Insulin secretion was assessed as previously described in Schuit, F., et al., J. Biol. Chem. 272:18572-18579 (1997), using an insulin ELISA kit (Linco Research, MO). When required, the untreated or treated cultures were also pre-incubated for 30 min with […] diazoxide, 10 mM tolbudamide, or […] IBMX."}, "MDSC cultures [3]": {"tested_on": "MDSC cultures", "test": "LPS-induced macrophage differentiation of MDSC cultures", "settings": "1 μg/ml LPS; 12-14-day-old M-CSF-treated cultures with 80-90% MDSCs", "source_text": "This transformation was verified by characterization of morphology, lipid staining, increased HLA-DR, HLA-DQ, IL-10 and TNF-α immunostaining (FIG. 3), and cytotoxicity (Table 1)."}, "MDSC cultures [4]": {"tested_on": "MDSC cultures", "test": "Pancreatic islet β-cell-like  differentiation of MDSC cultures, immunostaining for β-cell markers", "settings": "high glucose, absence of serum", "procedure": "Cells. MDSCs cultured in 8-well Lab-Tek chamber slides (Nunc, Naperville, Ill.)) were treated for 3-5 days with 1 mg/ml LPS (Sigma) or […] CD40Ab (R&D System, Minneapolis, Minn.)) in the presence of low (5 mM) or high (25 mM) glucose (Sigma). Human pancreatic islets were digested as described in Ricordi, C., et al., Diabetes 38 Suppl 1, 140-142 (1989) and purified on COBE 2991 (Mediatech, Herndon, Va.) using a continuous Ficoll gradient. Immunostaining. Tissue slides (Biochain, Hayward, Calif.) were immunostained after deparaffinization with AutoDewaxer (Phoenix Biotechnologies, Huntsville, Ala.). The secondary antibodies were peroxidase-, FITC-, or Texas Red® dye-conjugated affiniPure anti-mouse, donkey, goat or Guinea pig antibodies (Jackson ImmunoResearch Laboratories, West Grove, Pa.). […] Isotype-matched antibodies served as controls. Human macrophages served as positive controls. […] Immunostaining for the different antigens and insulin immuno-quantification was done as previously described (Zhao, Y., et al., Proc. Natl. Acad. Sci. USA, 100: 2426-2431 (2003). Non-specific esterase staining was performed using a-Naphthyl Acetate Esterase kit (Sigma)."}}}
{"substance": "lipopolysaccharide [LPS]", "values": [{"measurement": "insulin gene expression", "setting": "insulin gene", "value": "express the insulin gene"}, {"measurement": "granules seen by transmission electron microscopy", "setting": "MDSC cultures [1]", "value": "many halo granules of different sizes"}, {"measurement": "insulin release by ELISA", "setting": "MDSC cultures [2]", "value": "glucose-dependent insulin release"}, {"measurement": "macrophage differentiation of MDSCs", "setting": "MDSC cultures [3]", "value": "transformed the MDSCs into standard macrophages"}, {"measurement": "insulin level by quantitative immunostaining", "setting": "MDSC cultures [4]", "value": "about half the level of islet beta-cells"}]}
